Results as given in PubChem BioAssay AID1963864 (Molecular Pharmacology Branch, DTP, NCI, 2024).

Test system: KRAS PDC multicell spheroid viability
Experiment: Anticancer human tumor 521955-158-R6-J3-PDC patient-derived pancreatic carcinoma cell line growth inhibition [KRAS2]
Conditions: for viability, T/C: stronger effect = lower value; active means viability on the fitted dose curve at most 10% of control; inactive means the rest
Outline: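 KRAS-mutant tumor cells were grown as spheroids with HUVEC endothelial cells and human MSCs as stroma. Targeted agents were tested alone and with KRAS pathway inhibitors. Doses started at or near clinical Cmax, or 10 microM, descending half-log.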

[1] = curve of first compound, second compound 0.1 µM
[2] = curve of first compound, second compound 0.316 µM
[3] = curve of first compound, second compound 1 µM
[4] = curve of first compound, second compound 3.16 µM
[5] = curve of first compound, second compound 10 µM
[6] = second compound 0.1 µM, first compound 0.0316 µM
[7] = second compound 0.316 µM, first compound 0.0316 µM
[8] = second compound 1 µM, first compound 0.0316 µM
[9] = second compound 3.16 µM, first compound 0.0316 µM
[10] = second compound 10 µM, first compound 0.0316 µM
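Further: drug exposure lasted seven days.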
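Wherever viability, T/C is given: 100% = DMSO vehicle wells and lower means fewer viable cells.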

CC(=O)Nc1cccc(-n2c(=O)n(C3CC3)c(=O)c3c(Nc4ccc(I)cc4F)n(C)c(=O)c(C)c32)c1 + CNCc1ccccc1-c1csc(C(C)Nc2nc(C)nc3cc(OC)c(OC)cc23)c1
< 0.1 nM: IC50 [4] | IC50 [5]
15.1 nM: IC50 [2]
4.73 nM: IC50 [3]
active: viability, T/C (second compound 3.16 µM, first compound 0.0001 µM) 1.97% | viability, T/C (second compound 3.16 µM, first compound 0.000316 µM) 0.17% | viability, T/C (second compound 3.16 µM, first compound 0.001 µM) 7.16% | viability, T/C (second compound 3.16 µM, first compound 0.00316 µM) 2.18% | viability, T/C (second compound 3.16 µM, first compound 0.01 µM) 8.31% | viability, T/C [9] 1.89% | viability, T/C (second compound 10 µM, first compound 0.0001 µM) 2.4% | viability, T/C (second compound 10 µM, first compound 0.000316 µM) 1.9% | viability, T/C (second compound 10 µM, first compound 0.001 µM) 0.16% | viability, T/C (second compound 10 µM, first compound 0.00316 µM) 0.16% | viability, T/C (second compound 10 µM, first compound 0.01 µM) 4.06% | viability, T/C [10] 0.45%
16.7 nM: IC50 [1]
inactive: viability, T/C (second compound 0.1 µM, first compound 0.0001 µM) 84.3% | viability, T/C (second compound 0.1 µM, first compound 0.000316 µM) 83.3% | viability, T/C (second compound 0.1 µM, first compound 0.001 µM) 88.9% | viability, T/C (second compound 0.1 µM, first compound 0.00316 µM) 75% | viability, T/C (second compound 0.1 µM, first compound 0.01 µM) 60.7% | viability, T/C [6] 37.4% | viability, T/C (second compound 0.316 µM, first compound 0.0001 µM) 70.3% | viability, T/C (second compound 0.316 µM, first compound 0.000316 µM) 90.2% | viability, T/C (second compound 0.316 µM, first compound 0.001 µM) 80.8% | viability, T/C (second compound 0.316 µM, first compound 0.00316 µM) 72.4% | viability, T/C (second compound 0.316 µM, first compound 0.01 µM) 60% | viability, T/C [7] 33.2% | viability, T/C (second compound 1 µM, first compound 0.0001 µM) 69.1% | viability, T/C (second compound 1 µM, first compound 0.000316 µM) 76.6% | viability, T/C (second compound 1 µM, first compound 0.001 µM) 65.9% | viability, T/C (second compound 1 µM, first compound 0.00316 µM) 58.4% | viability, T/C (second compound 1 µM, first compound 0.01 µM) 35.3% | viability, T/C [8] 12.3%

CC1(C)CCC(CN2CCN(c3ccc(C(=O)NS(=O)(=O)c4ccc(NCC5CCOCC5)c([N+](=O)[O-])c4)c(Oc4cnc5[nH]ccc5c4)c3)CC2)=C(c2ccc(Cl)cc2)C1 + CNCc1ccccc1-c1csc(C(C)Nc2nc(C)nc3cc(OC)c(OC)cc23)c1
5170 nM: IC50 [2]
inactive: viability, T/C [6] 98.5% | viability, T/C (second compound 0.1 µM, first compound 0.1 µM) 98.1% | viability, T/C (second compound 0.1 µM, first compound 0.316 µM) 94.6% | viability, T/C (second compound 0.1 µM, first compound 1 µM) 97.1% | viability, T/C (second compound 0.1 µM, first compound 3.16 µM) 81.3% | viability, T/C (second compound 0.1 µM, first compound 10 µM) 32.9% | viability, T/C [7] 96.8% | viability, T/C (second compound 0.316 µM, first compound 0.1 µM) 90.5% | viability, T/C (second compound 0.316 µM, first compound 0.316 µM) 90.2% | viability, T/C (second compound 0.316 µM, first compound 1 µM) 84.2% | viability, T/C (second compound 0.316 µM, first compound 3.16 µM) 71% | viability, T/C (second compound 0.316 µM, first compound 10 µM) 23.2% | viability, T/C [8] 83% | viability, T/C (second compound 1 µM, first compound 0.1 µM) 83.6% | viability, T/C (second compound 1 µM, first compound 0.316 µM) 84.4% | viability, T/C (second compound 1 µM, first compound 1 µM) 82.6% | viability, T/C (second compound 1 µM, first compound 3.16 µM) 56.8% | viability, T/C (second compound 1 µM, first compound 10 µM) 14.7%
6690 nM: IC50 [1]
3810 nM: IC50 [3]
active: viability, T/C [9] 0.59% | viability, T/C (second compound 3.16 µM, first compound 0.1 µM) 1.4% | viability, T/C (second compound 3.16 µM, first compound 0.316 µM) 0.57% | viability, T/C (second compound 3.16 µM, first compound 1 µM) 0.81% | viability, T/C (second compound 3.16 µM, first compound 3.16 µM) 1.65% | viability, T/C (second compound 3.16 µM, first compound 10 µM) 3.03% | viability, T/C [10] 0.22% | viability, T/C (second compound 10 µM, first compound 0.1 µM) 0.61% | viability, T/C (second compound 10 µM, first compound 0.316 µM) 0.21% | viability, T/C (second compound 10 µM, first compound 1 µM) 0.23% | viability, T/C (second compound 10 µM, first compound 3.16 µM) 1.01% | viability, T/C (second compound 10 µM, first compound 10 µM) 0.27%
< 31.6 nM: IC50 [4] | IC50 [5]

COc1cc(OC)cc(N(CCNC(C)C)c2ccc3ncc(-c4cnn(C)c4)nc3c2)c1
7.96% [middle of 4 runs]: viability, T/C (compound 10 µM)
inactive: viability, T/C (compound 0.0316 µM) 96% [middle of 4 runs] | viability, T/C (compound 0.1 µM) 96.3% [middle of 4 runs] | viability, T/C (compound 0.316 µM) 96.1% [middle of 4 runs] | viability, T/C (compound 1 µM) 94% [middle of 4 runs] | viability, T/C (compound 3.16 µM) 110% [middle of 4 runs]
5.96 µM [middle of 4 runs]: IC50 (curve of compound)
